pKi: −log10 of the molar value.
Legend:
C1b domain of human PKCδ = target: T1, C1b domain of human PKCδ (Homo sapiens, UniProt Q05655); assay: Competitive 3H-PDBu binding to C1b domain of PKCδ; conditions: Ki PKCδ, 3H-PDBu competition
T1 construct: Genes encoding C1b domains of human PKCα, δ, ε, θ, and PKD1 (PKCμ) were synthesized; made in house; host or cells: E. coli BL21(DE3)
Description: (§1) Compounds described in this disclosure were tested for binding affinity to C1b domain of PKC isoforms. Compound binding affinity to C1b domain of PKC isoforms was derived from competitive binding assay using radioactive tracer ^3H-PDBu and recombinant GST-C1b or full-length of human PKC proteins based on modified procedures from Methods in Molecular Biology, vol.
(§2) Genes encoding C1b domains of human PKCα, δ, ε, θ, and PKD1 (PKCμ) were synthesized and inserted into pGEX-2TK or pGEX-4T1 vectors for expression and production of GST-C1b proteins in E. coli BL21(DE3) via IPTG induction. The target proteins were purified by glutathione sepharose 4B and followed by ion exchange chromatography if needed to achieve purity >70%. Aliquots of the purified proteins were stored at −80 degree for binding assay (storage buffer: 20 mM Tris pH 8.0, 200 mM NaCl, 10% glycerol, 1 mM DTT).
(§3) The plate was incubated at 37° C. on a shaker at 300 rpm for 10 minutes and then put on ice for 20 minutes. […] The bottom of the filter plate was sealed and 50 μL of MicroScint-20 (PerkinElmer) cocktail was added to each well. ^3H-PDBu trapped in each well was counted using PerkinElmer MicroBeta2 Reader. Data were analyzed using GraphPad Prism5 with the model “log(inhibitor) vs. response-variable slope” to fit the IC50, and then IC50 was transformed to Ki using Cheng-Prusoff equation: Ki=IC50/(1+added radio ligand/Kd). Kd is the binding affinity of each protein preparation to ^3H-PDBu, determined experimentally.

C1b domain of human PKCα = target: T2, C1b domain of human PKCα (Homo sapiens, UniProt P17252); assay: biochemical; type: binding; conditions: 3H-PDBu competition; for pKi: Ki PKCα
T2 construct: Genes encoding C1b domains of human PKCα, δ, ε, θ, and PKD1 (PKCμ) were synthesized; made in house; host or cells: E. coli BL21(DE3)
Description: as §1, §2
The plate was incubated at 37° C. on a shaker at 300 rpm for 10 minutes and then put on ice for 20 minutes. […] The bottom of the filter plate was sealed and 50 μL of MicroScint-20 (PerkinElmer) cocktail was added to each well. ^3H-PDBu trapped in each well was counted using PerkinElmer MicroBeta2 Reader. […] Kd is the binding affinity of each protein preparation to ^3H-PDBu, determined experimentally.

C1b domain of human PKCθ = target: T3, C1b domain of human PKCθ (Homo sapiens, UniProt Q04759); assay: Competitive 3H-PDBu binding to C1b domain of PKCθ
T3 construct: Genes encoding C1b domains of human PKCα, δ, ε, θ, and PKD1 (PKCμ) were synthesized; made in house; host or cells: E. coli BL21(DE3)
T3 sequence (Q04759 231-281 limits assumed): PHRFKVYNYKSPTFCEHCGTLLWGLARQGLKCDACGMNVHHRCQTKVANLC
Description: as §1, §2, §3

C1b domain of human PKCε = target: T4, C1b domain of human PKCε (Homo sapiens, UniProt Q02156); assay: Competitive 3H-PDBu binding to C1b domain of PKCε
T4 construct: Genes encoding C1b domains of human PKCα, δ, ε, θ, and PKD1 (PKCμ) were synthesized; made in house; host or cells: E. coli BL21(DE3)
T4 sequence (Q02156 242-292 limits assumed): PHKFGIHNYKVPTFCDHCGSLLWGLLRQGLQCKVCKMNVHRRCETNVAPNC
Description: as §1, §2, §3

[1] = target: T5, C1b domain of human PKD1 (PKCμ) (Homo sapiens, UniProt Q15139); assay: biochemical; type: binding
T5 construct: Genes encoding C1b domains of human PKCα, δ, ε, θ, and PKD1 (PKCμ) were synthesized; made in house; host or cells: E. coli BL21(DE3)
T5 sequence (Q15139 270-320 limits assumed): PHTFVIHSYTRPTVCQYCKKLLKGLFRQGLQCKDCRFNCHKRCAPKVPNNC
Description: as §1, §2, §3

[2] = tested on: A549 non-small cell lung cancer cell line; assay: Proliferation of A549 (CellTiter Glo); type: cell-based; conditions: Homo sapiens, A549, 96 h, read-out: IC50 μM (A549 Cell Line)
Description: (§4) The diterpenoid compounds were tested in A549, a non-small cell lung cancer cell line harboring a K-Ras activating mutation. Briefly, A549 cells at a density of 1,000 cells/well were seeded in 96-well plates and incubated at 37° C. for 24 hours. A series of different concentrations of compound stocks (500×) were prepared by 3-fold serial dilution in DMSO. These compounds were further diluted in culture media and then added to cells so that the final DMSO concentration was not exceeding 0.25%. After 96 hours of incubation, 50 μL of CellTiter Glo reagent (Promega) was added to each well and luminescence was measured after 10 minutes using EnVision (PerkinElmer). Luminescence from cells treated with DMSO alone was set as Max and % of inhibition was calculated as follows: Inhibition %=(Max−Sample value)/Max×100. Data was analyzed using XL-fit software (ID Business Solutions Ltd.) and IC50, relative IC50, and % of top inhibition was calculated. Some of the compounds in this disclosure were very potent in blocking proliferation of A549 lung cancer cells at low nM range. In addition, potency of inhibiting A549 proliferation correlated well with its binding affinity to PKCs for this series of compounds. In other words, higher affinity binders had stronger inhibitory effects on A549 proliferation. This further support the notion that activation, rather than inhibition, of certain PKC isoforms is required to block proliferation of cancer cells, some of which may harbor K-Ras mutations. This is in sharp contrast to previous literature and common belief that inhibition of PKC is necessary to block cancer cell growth (Kang, 2014, New Journal of Science, 2014:1-36). Data presented here is in agreement with recent findings that many loss-of-function but not gain-of-function mutations of PKC isoforms have been identified in many human cancers (Antal et al., 2015, Cell, 160:489-502).

[3] = tested on: HL-60 (Leukemia) cell line; assay: Proliferation of HL-60; type: cell-based; conditions: for ratio of (IC50 of K01)/(IC50 of compound), HL-60: value in parenthesis; for IC50: Homo sapiens, HL-60, read-out: IC50 in μM HL-60 (Leukemia)
Description: as §4
(§5) The compounds in this disclosure were tested for their potency in blocking proliferation of a few other cancer cells lines, including K-Ras mutant pancreatic cell lines Panc2.13 and KP-4, leukemia cell line HL-60, and lymphoma cell lines Namalwa and Mino. Similar procedures as in Example 67 were followed. Initial cell numbers seeded in 96-well plates were different for different cell lines: 3000 cells/well for Panc2.13; 800-1000 cells/well for KP-4; 5000 cells/well for HL-60; 5000-10000 cells/well for Namalwa and Mino. A ratio ratio of (IC50 of K01)/(IC50 of compound) (data in parenthesis in Table 5) was used to normalize the compound potency from different assay batches to a common comparator […].

[4] = tested on: Namalwa (Lymphoma) cell line; assay: Proliferation of Namalwa; type: cell-based; conditions: for ratio of (IC50 of K01)/(IC50 of compound), Namalwa: value in parenthesis; for IC50: read-out: IC50 in μM Namalwa (Lymphoma)
Description: as §4, §5

[5] = tested on: Mino (Lymphoma) cell line; assay: Proliferation of Mino; type: cell-based; conditions: for IC50: Homo sapiens, MINO, read-out: IC50 in μM Mino (Lymphoma); for ratio of (IC50 of K01)/(IC50 of compound), Mino: value in parenthesis
Description: as §4, §5

T1 sequence (Q05655 230-280 limits assumed): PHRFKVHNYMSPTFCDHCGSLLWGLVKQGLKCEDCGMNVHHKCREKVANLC

SMILES	pKi (C1b domain of human PKCδ)	pKi (C1b domain of human PKCα)	pKi (C1b domain of human PKCθ)	pKi (C1b domain of human PKCε)	pKi [1]	IC50 [2]	ratio of (IC50 of K01)/(IC50 of compound), HL-60 [3]	IC50 [3]	ratio of (IC50 of K01)/(IC50 of compound), Namalwa [4]	IC50 [4]	IC50 [5]	ratio of (IC50 of K01)/(IC50 of compound), Mino [5]	Ki PKCα (C1b domain of human PKCα)
CC1=C[C@H]2[C@@]3(O)[C@H](C)C[C@]4(OC(=O)CCCc5ccccc5)[C@H]([C@@H]3C=C(CO)C[C@]2(O)C1=O)C4(C)C [Compound K101-C1324]	> 8.30	6.70 to 7.00	> 8.30	> 8.30	> 8.30	0.01 to 0.03 µM	32.7	0.01 to 0.03 µM	8.63	0.001 to 0.01 µM	0.001 to 0.01 µM	37.5	
CC1=C[C@H]2[C@@]3(O)[C@H](C)C[C@]4(OC(=O)CCc5ccc(C(F)(F)F)cc5)[C@H]([C@@H]3C=C(CO)C[C@]2(O)C1=O)C4(C)C [Compound K101-C1302]	> 8.30	7.22 to 7.52	> 8.30	> 8.30	> 8.30	0.01 to 0.03 µM	72	0.001 to 0.01 µM	13.8	0.001 to 0.01 µM	< 0.001 µM	75	
CC1=C[C@H]2[C@@]3(O)[C@H](C)C[C@]4(OC(=O)CC5CC6(C5)CN(C(=O)OC(C)(C)C)C6)[C@H]([C@@H]3C=C(CO)C[C@]2(O)C1=O)C4(C)C [Compound K101-C1312]	8.00 to 8.30	6.70 to 7.00	7.52 to 9.00	7.52 to 9.00	> 8.30	0.03 to 0.06 µM							
CC1=C[C@H]2[C@@]3(O)[C@H](C)C[C@]4(OC(=O)[C@H](N)C(C)(C)c5ccc(C(F)(F)F)cc5)[C@H]([C@@H]3C=C(CO)C[C@]2(O)C1=O)C4(C)C [Compound K101-C134901]	7.52 to 9.00	6.40 to 6.70	7.52 to 9.00	7.52 to 9.00	8.00 to 8.30	0.2 to 0.6 µM	2.75	0.1 to 0.2 µM	0.49	0.1 to 0.2 µM	0.01 to 0.03 µM	3.88	
CC1=C[C@H]2[C@@]3(O)[C@H](C)C[C@]4(OC(=O)[C@@H](N)CCCCCCc5ccc(C(F)(F)F)cc5)[C@H]([C@@H]3C=C(CO)C[C@]2(O)C1=O)C4(C)C [Compound K101-C135902]	8.00 to 8.30		7.52 to 9.00	7.52 to 9.00	8.00 to 8.30	0.01 to 0.03 µM							E (E=>60 nM and ≤10 nM)
